From patent US5364944A, “Substituted benzoylbenzene-, biphenyl- and 2-oxazole- alkanoic acid compounds” (American Home Products Corporation, priority 1993, dated 1994)
Where a name gives a salt, the structure may show the parent alone. Read-outs that look alike come from different tables or passages of the source.

Tests used:
LTB4 = assay: Reverse passive Arthus pleurisy assay, inflammatory mediator release: LTB4; type: in vivo, rat (male Lewis); conditions: for % Inhibition of LTB4 Synthesis: 3 hours before challenge
Method: (§1) The compounds of the invention are further tested in the reverse passive Arthus pleurisy assay to evaluate their effectiveness in inflammatory mediator release and/or the fluid and cellular phases of an inflammatory response.
(§2) This assay is carried out as follows:
A reverse passive Arthus reaction is induced in the pleural cavity of male Lewis rats (150-200 g; fasted overnight prior to use) by the intravenous administration of bovine serum albumin (BSA; 4 mg/0.2 ml) followed 30 minutes later by the injection of rabbit anti-BSA (1 mg/0.2 ml; lyophilized IgG fraction; Organon Teknika, West Chester, Pa.) into the right pleural space under halothane anesthesia. […] Animals are sacrificed at either the time of peak eicosanoid production (i.e. 5 minutes after anti-BSA for immunoreactive TxB2 10 minutes for immunoreactive LTB4, 20 minutes for immunoreactive LTC4) or at the time of peak neutrophil infiltration (4 hours after anti-BSA) by CO2 inhalation. The pleural cavity is then exposed, the fluid exudate removed by gentle vacuum aspiration and the volume of exudate is recorded. For the determination of cellular infiltration, the pleural cavity is rinsed with 3 ml of 0.1% EDTA in sterile saline, and the recovered wash is pooled with the exudate. Cell number is determined on a model ZBI Coulter counter. For determination of eicosanoid production, undiluted pleural exudate is microfuged and the supernatant is extracted with ethanol (8-10 times volume). Extracts are either stored at -20° C., or are evaporated to dryness under a stream of N2 and reconstituted in radioimmunoassay (RIA) buffer.
Eicosanoids are quantitated by RIA according to the procedure specified by the RIA kit manufacturer (Advanced Magnetics, Cambridge, Mass.). Briefly, 100 μl of ^3 H-labeled eicosanoid and 100 μl of specific antibody are sequentially added to 100 μl of extracted pleural exudate in BGG -phosphate buffer which contains 0.01 M phosphate, 0.1% bovine gamma globulin and 0.1% sodium azide at pH 7.0. Antibody-bound eicosanoid is separated from unbound eicosanoid by the addition of 750 μl of dextran (0.4%)-coated charcoal (0.4% Norit A) containing 0.1% sodium azide. The mixture is centrifuged at 2000 RPM at 5° C. for 15 minutes to pellet the charcoal and adsorbed unbound eicosanoid. Antibody-bound labeled eicosanoid is quantitated by counting in a liquid scintillation counter, and is correlated to concentration by a standard curve.
(§3) Inflammatory cells are expressed as 10^6 cells/ml, pleural exudate is expressed as ml of fluid, and the amount of eicosanoids in the pleural cavity is expressed as ng/ml of exudate. Mean ±S.E.M. is determined for each group. Percent inhibition (% I) of cell number, exudate volume and eicosanoid production is calculated for vehicle-treated control groups, and the responses in drug-treated rats are then expressed as the mean % I of the control. […] Exp. Ther., 96, 99-113 (1949).

[1] = system: 5-lipoxygenase in human whole blood; assay: Inhibition of 5-lipoxygenase in human whole blood (LTB4); type: cell-based
Method: The assay of this Example measures the ability of the compounds tested to inhibit 5-lipoxygenase in human whole blood.
as §2
Blood is obtained in 50-100 ml quantities from male donors. White blood cell counts and differentials are made. Two ml of blood are placed in a 15 ml polypropylene test tube. Compounds are solubilized in dimethylsulfoxide and diluted 1:10 in 10% bovine serum albumin in phosphate buffered saline, pH 7.4 resulting in a final dimethylsulfoxide concentration of 0.1% in the blood. Then, compounds are added to the blood in a shaking water bath at 37° C. for 10 minutes prior to the addition of 30 μM calcium ionophore (A23187; Sigma). After ionophore administration, whole blood samples are mixed and incubated for 20 minutes at […] in a shaking water bath. Incubation is terminated by placing samples in an ice bath and immediately adding ethylene glycol-bis-(β-aminoethyl ether)-N,N,N',N'-tetraacetic acid (10 mM). Samples are mixed and centrifuged at 1200×g for 15 minutes at 4° C. Preparation of samples for evaluation by RIA or ELISA is carried out by the following protocol. Plasma is removed from sample tubes, placed in 15 ml polypropylene test tubes containing 8 ml methanol, and then vortexed to precipitate protein. Samples are stored at -70° C. overnight. The next day, samples are centrifuged at 200×g for 15 minutes at 4° C. to pellet the precipitate. Samples are dried in a Savant speed vac concentrator, reconstituted to original volume with ice cold RIA or ELISA buffer, and stored at -70° C. until assayed. The assay for eicosanoids (LTB4, TxB2, and PGE2) is performed as described by the manufacturer of the [^3 H]-RIA kit or ELISA kit (LTB4 -Amersham, TxB2 and PGE2 - Caymen Chemical).
The total eicosanoid level in 2 ml of blood is calculated and reported as ng/10^6 neutrophils. […] Drug effects are expressed as percent change from control values.
Compounds tested in vitro are solubilized in dimethylsulfoxide and diluted 1:10 in 10% bovine serum albumin in phosphate buffer saline resulting in a final dimethylsulfoxide concentration of 0.1% in the blood.

[2] = target: T1, LTD4-induced contractions of isolated guinea pig trachea (Cavia porcellus, UniProt Q2NNR5); assay: In vitro isolated guinea pig trachea assay, LTD4 antagonist activity; set-up: species or system guinea pig (male Hartley); conditions: 1 × 10^-5 M
T1 construct: isolated guinea pig trachea; from tissue; host or cells: tracheal rings of male Hartley guinea pigs
T1 sequence (Q2NNR5 1-340): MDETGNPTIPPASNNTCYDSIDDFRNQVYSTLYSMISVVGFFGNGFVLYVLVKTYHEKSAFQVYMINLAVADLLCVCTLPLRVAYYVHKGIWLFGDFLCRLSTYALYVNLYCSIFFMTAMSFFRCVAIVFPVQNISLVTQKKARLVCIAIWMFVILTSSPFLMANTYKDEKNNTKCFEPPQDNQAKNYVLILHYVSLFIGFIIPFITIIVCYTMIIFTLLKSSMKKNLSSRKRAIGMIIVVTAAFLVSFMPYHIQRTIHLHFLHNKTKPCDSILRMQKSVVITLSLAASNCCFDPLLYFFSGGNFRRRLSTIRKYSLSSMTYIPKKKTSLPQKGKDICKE
Method: The LTD4 antagonist activity of the compounds of the invention is assessed in the in vitro isolated guinea pig trachea assay. This assay is carried out as follows: Male Hartley guinea pigs (350-400 g) are euthanized by a blow to the head, the neck is opened and the trachea removed. The trachea is maintained in aerated physiological salt solution, cleared of connective tissue and fat and cut into rings approximately 2 mm in width (usually containing two cartilaginous segments per ring). Two pieces of silk suture are then passed through the lumen of the tracheal ting and are tied around the cartilage, one on each side of the trachealis muscle. The tracheal ring is suspended between a glass hook and a force displacement transducer in a 10 ml organ bath for measurement of isometric tension. […] The tracheal rings are maintained at 2 g resting tension and equilibrated for 45 minutes (with frequent washing and readjustment of resting tension). The tracheal […] contracted by the addition of carbachol (3×10^-6 M), to determine tissue responsiveness and establish a reference contraction. On attainment of a stable level of contraction (approximately 30 minutes), the tissues are washed several times until baseline tension has been restored and the re-equilibrated for 30 minutes. The tissues are then incubated for 45 minutes with a test antiagonist (either 1×10^-6 M or 1×10^-5 M) or 10 μl of an appropriate solvent control (control, nontreated). One tissue in each group serves as the control. Twenty minutes prior to the construction of the LTD4 cumulative concentration-response curve, L-[…]×10^-2 M final bath concentration) is added to inhibit bioconversion of LTD4 to LTE4. Only one LTD4 concentration-response curve is constructed in each tissue. All responses to LTD4 in an individual tissue are measured as a percentage of the reference contraction of that tissue to carbachol. LTD4 antagonist activity is determined by comparison of the concentration response curves of LTD4 in the presence and absence of antagonist. Assessment of the relative rightward shift of the antagonist treated curve relative to the solvent (control) treated tissue is calculated as a concentration ratio (Eq. A) and used in subsequent calculations to derive an antagonist pKB value (Eqs. B and C). […] If a compound is found to be active and/or depress the maximal response to LTD4, then a range of concentrations of the test compound should be used generating multiple concentration ratios which would then be used to perform a Schild analysis, and determination of a pA2 value where appropriate.

[3] = system: fluid and cellular phases of an inflammatory response; assay: Reverse passive Arthus pleurisy assay, pleural inflammation (fluid exudation, cellular influx); type: in vivo, rat (male Lewis)
Method: as §1, §2
A reverse passive Arthus reaction is induced in the pleural cavity of male Lewis rats (150-200 g; fasted overnight prior to use) by the intravenous administration of bovine serum albumin (BSA; 4 mg/0.2 ml) followed 30 minutes later by the injection of rabbit anti-BSA (1 mg/0.2 ml; lyophilized IgG fraction; Organon Teknika, West Chester, Pa.) into the right pleural space under halothane anesthesia. Drugs or vehicle (0.5% Tween-80) control are administered orally in a volume of 1 ml/100 g body weight at 1 hour prior to the anti-BSA. Animals are sacrificed at either the time of peak eicosanoid production (i.e. 5 minutes after anti-BSA for immunoreactive TxB2 10 minutes for immunoreactive LTB4, 20 minutes for immunoreactive LTC4) or at the time of peak neutrophil infiltration (4 hours after anti-BSA) by CO2 inhalation. The pleural cavity is then exposed, the fluid exudate removed by gentle vacuum aspiration and the volume of exudate is recorded. For the determination of cellular infiltration, the pleural cavity is rinsed with 3 ml of 0.1% EDTA in sterile saline, and the recovered wash is pooled with the exudate. Cell number is determined on a model ZBI Coulter counter. For determination of eicosanoid production, undiluted pleural exudate is microfuged and the supernatant is extracted with ethanol (8-10 times volume). Extracts are either stored at -20° C., or are evaporated to dryness under a stream of N2 and reconstituted in radioimmunoassay (RIA) buffer.
as §3

Row | SMILES | Kb [2] [µM] | % Inhibition of LTB4 Synthesis (LTB4; 25 mg/kg p.o.) [%] | % Inhibition of LTB4 ([1]; at 25 μM) [%] | further results
1 | CN(O)C(=O)Cc1ccc(-c2ccc(OCc3csc(-c4ccccc4)n3)cc2)cc1 [Example 18] | > 7.94 | 32 | 97 | IC50 [1]: 0.5 µM
2 | COc1ccc2c(c1)c(CC(=O)O)c(C)n2C(=O)c1ccc(Cl)cc1 [Indomethacin] |  |  |  | % Inh LTB4 (LTB4; 4 mg/kg p.o., standard drugs): 12%; % Inh Cellular Influx ([3]; 8 mg/kg p.o., standard drugs): 19%; ED30 ([3]; Rattus norvegicus, po, read-out: ED30 Fluid Exudation): 2.5 mg/kg
3 | CC(C(=O)N(C)O)c1ccc(-c2ccc(OCc3nc4ccccc4s3)cc2)cc1 (stereo not drawn) [Example 16, N-Hydroxy-N,α-dimethyl-4'-(2-benzothiazolylmethoxy)[1,1'-biphenyl]-4-acetamide] |  | 46 | 72 | IC50 [1]: 8.3 µM
4 | CC(C(=O)N(C)O)c1ccc(-c2ccc(OCc3csc(-c4ccccc4)n3)cc2)cc1 (stereo not drawn) [Example 22, N-Hydroxy-N,α-dimethyl-4'-[(2-phenylthiazol-4-yl)methoxy][1,1'-biphenyl]-4-acetamide,sodium salt, hydrate] | 5.01 |  |  | % Inhibition of LTB4 Synthesis (LTB4; 25 mg/kg p.o., sodium salt, hydrate): 37%; % Inhibition of LTB4 ([1]; at 25 μM, sodium salt, hydrate): 74%; IC50 ([1]; sodium salt, hydrate): 9 µM
5 | O=C(O)Cc1ccc(-c2ccc(OCc3ccc4ccccc4n3)cc2)c(F)c1 [Example 2, 2-Fluoro-4'-(2-quinolinylmethoxy)-[1,1'-biphenyl]-4-acetic acid] | 0.631 | 34 | 5 | 
6 | C[C@@H]1C[C@H]2[C@@H]3CCC4=CC(=O)C=C[C@]4(C)[C@@]3(F)[C@@H](O)C[C@]2(C)[C@@]1(O)C(=O)CO [Dexamethasone] |  |  |  | ED30 Fluid Exudation ([3]; p.o., pleural inflammation, standard drugs): 0.05 mg/kg
7 | CC(C(=O)N(C)O)c1ccc(-c2ccc(OCc3nc4ccccc4s3)cc2)cc1 (centres unmarked) [Example 17, N-Hydroxy-N.,a,-dimethyl-4'-(2-benzothiazolylmethoxy)[1,1'-biphenyl]-4-acetamide, sodium salt, methanol solvate] | > 3.16 | 37 |  | 
8 | CC(C)N(O)C(=O)Cc1ccc(-c2ccc(OCc3csc(-c4ccccc4)n3)cc2)cc1 [Example 20, N-Hydroxy-N-isopropyl-4'-[(2-phenylthiazol-4yl)methoxy][1,1'-biphenyl]-4-acetamide] |  | 19 | 93 | pKB [2]: < 5.2

The next lines start with results.

Row | Kb [2] [µM] | SMILES | % Inhibition of LTB4 Synthesis (LTB4; 25 mg/kg p.o.) [%] | % Inhibition of LTB4 ([1]; at 25 μM) [%] | further results
9 | > 10 | CC(C)N(O)C(=O)Cc1ccc(-c2ccc(OCc3nc4ccccc4s3)cc2)cc1 [Example 15, N-Hydroxy-N-isopropyl-4'-(2-benzothiazolymethoxy)[1,1'-biphenyl]-4-acetamide] |  | 77 | % Inhibition of LTB4 Synthesis (LTB4; 10 mg/kg p.o.): 12%
10 | > 10 | CN(O)C(=O)Cc1ccc(-c2ccc(OCc3nc4ccccc4s3)cc2)c(F)c1 [Example 26] | 7 | 86 | IC50 [1]: 1.3 µM
11 | > 10 | CC(c1ccc(-c2ccc(OCc3nc4ccccc4s3)cc2)cc1)N(O)C(N)=O (centres unmarked) [Example 33, 1-{1-[4'-(Benzothiazol-2-ylmethoxy)biphenyl-4-yl]-ethyl}-1-hydroxy-urea] | 2 |  | % Inhibition of LTB4 ([1]; at 10 μM): 10%
12 | 1 | CC(C(=O)N(C)O)c1ccc(-c2ccc(OCc3nc4ccccc4n3C)cc2)cc1 (stereo not drawn) [Example 24, N-Hlydroxy-N,α-dimethyl-4'-[(1-methyl-1H-benzimidazol-2-yl)methoxy]-[1,1'-biphenyl]-4-acetamide, hydrochloride salt] | 56 |  | 
